Earlier results, collected in patent US8288342B2, “Methods for treating vasomotor symptoms in castrated prostatic cancer patients with low dose cyproterone acetate” (priority 2008, dated 2012).

Tested on: hot flashes
Settings: 37 subjects with bothersome hot flashes; cited from earlier work

SMILES: CC(=O)O[C@]1(C(C)=O)CC[C@H]2[C@@H]3C=C(C)C4=CC(=O)CC[C@]4(C)[C@H]3CC[C@@]21C [MA, megestrol acetate]
- Therapeutic efficacy: reduction in hot flashes: 70%
